# Results reported in patent publication US8785424B2, “ngCycloartanone derivatives with anticancer activity” (Pierre Fabre Medicament, priority 2009, dated 2014).
# Counter-ions that a name gives are not always drawn.
# Tested on: proteasome
# Experiment: Cellular proteasome inhibition test: accumulation of 4Ub-Luc reporter (luciferase activity) in DLD-1 4Ub-Luc cell line
# Format: cell-based, human
# Conditions: DLD-1 4Ub-Luc cells; for relative induction factor (IF % luminescence) versus epoxomicin: 8 hours, epoxomicin = 100%
# Protocol: Biological tests were carried out according to protocols described in the following articles: Ausseil F. et al. J. Biomol Screen. 2007, 12, 106-116 and Vandenberghe I. et al. Biochemical Pharmacology 2008, 76, 453-462.
# In order to select novel proteasome inhibitor compounds, it is necessary to indirectly measure the activity of this proteasome within cells. To this end, we constructed a stable cell line, DLD-1 4Ub-Luc, arising from a human colon cancer cell line, which produces a chimeric reporter protein called 4Ub-Luc. This protein is a fusion between a 4-ubiquitin (4Ub) label and luciferase (Luc). This label is capable to direct every proteins that carry it toward the proteasome. The 4Ub-Luc protein is thus efficiently degraded by the proteasome, in contrast to the “wild” non-fused Luc protein. When the DLD-1 4Ub-Luc cell line is treated with a proteasome inhibitor, the fusion protein is much less efficiently degraded and accumulates in the cell. This accumulation is detected by an increase in luciferase activity in the treated extract compared to the extract from untreated cells. The control consists of verifying that the inhibitor has no effect on accumulation of the wild Luc protein produced by the stable DLD-1 RF cell line. For both cell lines and for each product an induction factor is determined for the product tested (or the reference) corresponding to the ratio between the luciferase activities measured in cells treated with this product (or the reference) and cells treated with solvent alone.
# The product's activity is then defined by its relative induction factor, i.e., the ratio of its induction factor (IF % luminescence) to that of the reference molecule epoxomicin (IF=100%; see data presented in the table below).
# Thus, the test established by Pierre-Fabre is a cellular test that has the advantage, compared to a purely enzymatic test, of detecting only products capable of penetrating the cell.
# Two cell lines are used for this test: DLD-1 RF and DLD-1 4Ub-Luc. The culture medium used is as follows: • MEM • 5% fetal calf serum • 5 ml of penicillin-streptomycin • 2.5 ml of FUNGIZONE® (Amphotericin B) • 10 ml of […]
# Day 1: Inoculate white 96-well culture-treated plates (PerkinElmer White ViewPlate, product no. 6005181) with 100 μl of 1·10^5 c/ml cell suspension per well. Incubate for 24 hours so that the cells adhere. On each plate five columns will be inoculated with DLD-1 4Ub-Luc and five others with DLD-1 RF according to diagram 1 below.
# Day 2: Remove the medium by turning the plates upside down on cotton, and then carry out the treatment with the compounds of the invention, with solvent alone or with a reference compound such as epoxomicin. […]
# The columns are paired (examples 2 and 8, 3 and 9, 4 and 10 and 5 and 11) and treated with the same compound. Columns 6 and 7 receive the experimental control, namely 0.1% DMSO in culture medium for wells B, C, D, and E of columns 6 and 7, and the positive control (10^−7 M epoxomicin) in wells F and G.
# After incubation, turn the plate upside down on cotton to empty the wells, rinse with 50 μl of PBS to remove any trace of the cytotoxin tested and then add 50 μl of 5× passive lysis buffer (Promega, product no. E1941) diluted to ⅕ in water. Shake energetically using a plate shaker for 5 to 10 minutes at room temperature before freezing at −20° C.
# Luciferase activity is measured using a Luciferase Assay System 10-Pack kit (Promega, product no. E1501).
# On the day luciferase activity is to be measured, defrost the plates and wait until they have returned to room temperature. The optimal temperature for luciferase activity is 20-25° C.
# Reconstitute the firefly luciferase substrate by defrosting the buffer and then adding 10 ml of buffer to the bottle containing the freeze-dried substrate. Wait until the solution is at room temperature before beginning the assay. […]
# [1] = concentration tested 5 · 10^−6 M
# [2] = concentration tested 5 · 10^−7 M
# [3] = concentration tested 5 · 10^−6 M, hydrochloride
# [4] = concentration tested 10^−5 M, hydrochloride
# [5] = concentration tested 10^−6 M, hydrochloride
structure (smiles),measurement,setting,value
"C=C(C(=O)[C@H](OC(=O)CCl)[C@@H](C)[C@H]1[C@@H](OC(C)=O)C[C@@]2(C)C3CCC4[C@H](C)C(=O)C=C[C@@]45C[C@@]35CC[C@]12C)[C@@H](C)COC(C)=O (stereo partly shown) [Compound 61, 22-chloroacetyl-26-acetyl-neoboutomellerone]",relative induction factor (IF % luminescence) versus epoxomicin,[1],21%
same,relative induction factor (IF % luminescence) versus epoxomicin,[2],23%
same,relative induction factor (IF % luminescence) versus epoxomicin,concentration tested 10^−5 M,6%
same,relative induction factor (IF % luminescence) versus epoxomicin,concentration tested 10^−6 M,64%
"C=C(C(=O)[C@H](OC(C)=O)[C@@H](C)[C@H]1[C@@H](OC(C)=O)C[C@@]2(C)C3CCC4[C@H](C)C(=O)C=C[C@@]45C[C@@]35CC[C@]12C)[C@@H](C)COC(=O)CN(C)C (stereo partly shown) [Compound 62, Neoboutomellerone 26-N-dimethyl glycinate]",relative induction factor (IF % luminescence) versus epoxomicin,[1],49%
same,relative induction factor (IF % luminescence) versus epoxomicin,concentration tested 10^−5 M,7%
same,relative induction factor (IF % luminescence) versus epoxomicin,concentration tested 10^−6 M,11%
"C=C(C(=O)[C@H](OC(C)=O)[C@@H](C)[C@H]1[C@@H](OC(C)=O)C[C@@]2(C)C3CCC4[C@H](C)C(=O)C=C[C@@]45C[C@@]35CC[C@]12C)[C@@H](C)COC(=O)CN(C)C (stereo partly shown) [Compound 63, neoboutomellerone 26-N-dimethyl glycinate hydrochloride]",relative induction factor (IF % luminescence) versus epoxomicin,[3],11%
same,relative induction factor (IF % luminescence) versus epoxomicin,[2],66%
same,relative induction factor (IF % luminescence) versus epoxomicin,[4],3%
same,relative induction factor (IF % luminescence) versus epoxomicin,[5],50%
"C=C(C(=O)[C@H](O)[C@@H](C)[C@H]1[C@@H](OC(C)=O)C[C@@]2(C)C3CCC4[C@H](C)C(=O)C=C[C@@]45C[C@@]35CC[C@]12C)[C@@H](C)COC(=O)CN(C)C (stereo partly shown) [Compound 64, 22-deacetyl-neoboutomellerone 26-N-dimethyl glycinate]",relative induction factor (IF % luminescence) versus epoxomicin,[1],35%
same,relative induction factor (IF % luminescence) versus epoxomicin,concentration tested 10^−5 M,7%
same,relative induction factor (IF % luminescence) versus epoxomicin,concentration tested 10^−6 M,22%
"C=C(C(=O)[C@H](O)[C@@H](C)[C@H]1[C@@H](OC(C)=O)C[C@@]2(C)C3CCC4[C@H](C)C(=O)C=C[C@@]45C[C@@]35CC[C@]12C)[C@@H](C)COC(=O)CN(C)C (stereo partly shown) [Compound 65, 22-deacetyl-neoboutomellerone 26-N dimethyl glycinate hydrochloride]",relative induction factor (IF % luminescence) versus epoxomicin,[3],34%
same,relative induction factor (IF % luminescence) versus epoxomicin,[2],1%
same,relative induction factor (IF % luminescence) versus epoxomicin,[4],4%
same,relative induction factor (IF % luminescence) versus epoxomicin,[5],17%
"C=C(C(=O)[C@H](O)[C@@H](C)[C@H]1[C@@H](OC(C)=O)C[C@@]2(C)[C@@H]3CC[C@H]4[C@H](C)C(=O)C=C[C@@]45C[C@@]35CC[C@]12C)[C@@H](C)COC(=O)CCN(CC)CC [Compound 66, 26-deacetyl-neoboutomellerone 26-N-diethyl-β-alaninate]",relative induction factor (IF % luminescence) versus epoxomicin,[1],9%
same,relative induction factor (IF % luminescence) versus epoxomicin,concentration tested 10^−5 M,2%
same,relative induction factor (IF % luminescence) versus epoxomicin,concentration tested 10^−6 M,13%
"C=C(C(=O)[C@H](OC(C)=O)[C@@H](C)[C@H]1[C@@H](OC(C)=O)C[C@@]2(C)C3CCC4[C@H](C)C(=O)C=C[C@@]45C[C@@]35CC[C@]12C)[C@@H](C)COC(=O)CCC(=O)O (stereo partly shown) [Compound 68, 26-succinate-neoboutomellerone]",relative induction factor (IF % luminescence) versus epoxomicin,[1],18%
same,relative induction factor (IF % luminescence) versus epoxomicin,[2],1%
same,relative induction factor (IF % luminescence) versus epoxomicin,concentration tested 10^−5 M,4%
same,relative induction factor (IF % luminescence) versus epoxomicin,concentration tested 10^−6 M,52%
"C=C(C(=O)[C@H](O)[C@@H](C)[C@H]1[C@@H](OC(C)=O)C[C@@]2(C)C3CCC4[C@H](C)C(=O)C=C[C@@]45C[C@@]35CC[C@]12C)[C@@H](C)COC(=O)CCC(=O)O (stereo partly shown) [Compound 71, 26-succinate-22-deacetyl-neoboutomellerone]",relative induction factor (IF % luminescence) versus epoxomicin,[1],11%
same,relative induction factor (IF % luminescence) versus epoxomicin,[2],6%
same,relative induction factor (IF % luminescence) versus epoxomicin,concentration tested 10^−5 M,4%
same,relative induction factor (IF % luminescence) versus epoxomicin,concentration tested 10^−6 M,62%
"C=C(C(=O)[C@H](OC(=O)CCC(=O)O)[C@@H](C)[C@H]1[C@@H](OC(C)=O)C[C@@]2(C)C3CCC4[C@H](C)C(=O)C=C[C@@]45C[C@@]35CC[C@]12C)[C@@H](C)COC(C)=O (stereo partly shown) [Compound 74, 22-deacetyl-22-succinate-26-acetyl-neoboutomellerone N-methylglucamine salt]",relative induction factor (IF % luminescence) versus epoxomicin,[1],14%
same,relative induction factor (IF % luminescence) versus epoxomicin,concentration tested 10^−5 M,2%
same,relative induction factor (IF % luminescence) versus epoxomicin,concentration tested 10^−6 M,60%
"C=C(C(=O)[C@H](OC(C)=O)[C@@H](C)[C@H]1[C@@H](OC(C)=O)C[C@@]2(C)C3CCC4[C@H](C)C(=O)C=C[C@@]45C[C@@]35CC[C@]12C)[C@@H](C)COC1(C)OC2OC(COC(C)=O)C(OC(C)=O)C(OC(C)O)C2O1 (stereo partly shown) [Compound 82, Neoboutomellerone 26-(2,3,4,6-tetraacetyl-glucosylate)]",relative induction factor (IF % luminescence) versus epoxomicin,[1],59%
same,relative induction factor (IF % luminescence) versus epoxomicin,concentration tested 10^−5 M,48%
same,relative induction factor (IF % luminescence) versus epoxomicin,concentration tested 10^−6 M,2%
"CC(=O)O[C@H]1C[C@@]2(C)[C@@H]3CC[C@H]4[C@H](C)C(=O)C=C[C@@]45C[C@@]35CC[C@]2(C)[C@H]1[C@H](C)[C@@H](OC(C)=O)C12OCC(C)C1Cc1ccc(O)cc1O2 (stereo partly shown) [Compound 88, Neoboutomellerone Resorcinol Derivative]",relative induction factor (IF % luminescence) versus epoxomicin,[1],47%
same,relative induction factor (IF % luminescence) versus epoxomicin,concentration tested 10^−5 M,78%
same,relative induction factor (IF % luminescence) versus epoxomicin,concentration tested 10^−6 M,1%
"C=C(C(=O)[C@H](OC(C)=O)[C@@H](C)[C@H]1[C@@H](OC(C)=O)C[C@@]2(C)C3CCC4[C@H](C)C(=O)C=C[C@@]45C[C@@]35CC[C@]12C)[C@@H](C)COP(=O)(O)O (stereo partly shown) [Compound 89, 26-phosphate-neoboutomellerone]",relative induction factor (IF % luminescence) versus epoxomicin,[1],3%
same,relative induction factor (IF % luminescence) versus epoxomicin,concentration tested 10^−5 M,40%
same,relative induction factor (IF % luminescence) versus epoxomicin,concentration tested 10^−6 M,1%
"C=C(C(=O)[C@H](OC(C)=O)[C@@H](C)[C@H]1[C@@H](OC(C)=O)C[C@@]2(C)[C@@H]3CC[C@H]4[C@H](C)C(=O)C=C[C@@]45C[C@@]35CC[C@]12C)[C@@H](C)COP(=O)(O)O [Compound 90, 26-phosphate-neoboutomellerone N-methyl Glutamine Salt]",relative induction factor (IF % luminescence) versus epoxomicin,[1],4%
same,relative induction factor (IF % luminescence) versus epoxomicin,concentration tested 10^−5 M,51%
same,relative induction factor (IF % luminescence) versus epoxomicin,concentration tested 10^−6 M,1%
"C=C(C(=O)[C@H](OC(C)=O)[C@@H](C)[C@H]1[C@@H](OC(C)=O)C[C@@]2(C)C3CCC4[C@H](C)C(=O)C=C[C@@]45C[C@@]35CC[C@]12C)[C@@H](C)COP(=O)(OCC)OCC (stereo partly shown) [Compound 92, 26-(diethylphosphate)-neoboutomellerone]",relative induction factor (IF % luminescence) versus epoxomicin,[1],16%
same,relative induction factor (IF % luminescence) versus epoxomicin,[2],3%
same,relative induction factor (IF % luminescence) versus epoxomicin,concentration tested 10^−5 M,2%
same,relative induction factor (IF % luminescence) versus epoxomicin,concentration tested 10^−6 M,43%
"CC[C@H](C)[C@H](NC(=O)[C@H]([C@@H](C)CC)N(C)C(C)=O)C(=O)N[C@H](C(=O)N[C@@H](CC(C)C)C(=O)[C@@]1(C)CO1)[C@@H](C)O [epoxomicin, reference compound]",induction factor of the reference (IF % luminescence),"reference molecule at 10^−7 M, set to IF=100%",100%
